One block for each compound: values may come before it.
Assay: photoluminescence quantum yield (fraction); solvent given as SMILES
[1] = in c1ccc2c(c1)c1ccccc1n2-c1ccc(-c2ccc(-n3c4ccccc4c4ccccc43)cc2)cc1
[2] = in c1cc(-c2cccc(-n3c4ccccc4c4ccccc43)c2)cc(-n2c3ccccc3c3ccccc32)c1

photoluminescence quantum yield (in CC#N): 0.84
Compound: F[B-]1(F)n2c(c(-c3cccs3)c3c2-c2ccccc2CC3)C=C2C(c3cccs3)=C3CCc4ccccc4C3=[N+]21

photoluminescence quantum yield (in ClCCl): 0.785
Compound: CC1=C(c2ccccc2)C(C)=[N+]2C1=C(c1c(-c3ccccn3)nc3ccccn13)c1c(C)c(-c3ccccc3)c(C)n1[B-]2(F)F

photoluminescence quantum yield (in ClCCl): 0.00065
Compound: COC(=O)C1=C(C(=O)OC)C2(c3ccccc3-c3ccccc32)[C@@H](c2ccc([N+](=O)[O-])cc2)C=C2c3cc(OC)c(OC)cc3CCN21

Compound: COC(=O)C1=NNC(C(=O)OC)=C2c3ccccc3C(=O)c3ccccc3C12 (configuration not stated)
photoluminescence quantum yield (in CC#N): 0.32

Compound: CC(=O)c1c2c(cc3c(N(C)C)cccc13)CCC2
photoluminescence quantum yield (in C1CCCCC1): 0.28
photoluminescence quantum yield (in C1CCOC1): 0.39
photoluminescence quantum yield (in C1COCCO1): 0.44
photoluminescence quantum yield (in CC#N): 0.23
photoluminescence quantum yield (in CCO): 0.01
photoluminescence quantum yield (in CS(C)=O): 0.48
photoluminescence quantum yield (in Cc1ccccc1): 0.47
photoluminescence quantum yield (in ClC(Cl)Cl): 0.4
photoluminescence quantum yield (in ClCCl): 0.6

photoluminescence quantum yield (in CC#N): 0.33
photoluminescence quantum yield (in CCCCCC): 0.26
Compound: COc1ccc(-n2cccc2)cc1

photoluminescence quantum yield (in CCCCCC): 0.543
Compound: CCc1c(C(=O)OC)c(C(=O)OC)c2ccc(-c3ccccc3)nn12

photoluminescence quantum yield (in ClC(Cl)Cl): 0.04
Compound: CCCCCCCCn1c(=O)c2cc3cc4cc5c(=O)n(CCCCCCCC)c(=O)c5cc4c(-c4ccc(N(c5ccccc5)c5ccccc5)cc4)c3cc2c1=O

Compound: Nc1ccc2c(c1)C(=O)O/C2=C\c1ccc(Cl)cc1
photoluminescence quantum yield (in CC#N): 0.08
photoluminescence quantum yield (in CC(C)=O): 0.1
photoluminescence quantum yield (in CC(C)CO): 0.2
photoluminescence quantum yield (in CC(C)O): 0.18
photoluminescence quantum yield (in CCCO): 0.18
photoluminescence quantum yield (in CCO): 0.17
photoluminescence quantum yield (in CCOC(C)=O): 0.11
photoluminescence quantum yield (in CCOCC): 0.12
photoluminescence quantum yield (in CO): 0.14

photoluminescence quantum yield (in C1CCCCC1): 0.08
Compound: CCCC1(CCC)c2cc(-c3cccc(Cc4ccc(/C=C/c5ccccc5)cc4)c3)ccc2-c2ccc(-c3cccc(Cc4ccc(/C=C/c5ccccc5)cc4)c3)cc21

photoluminescence quantum yield (in ClCCl): 0.76
Compound: COc1cc(-c2cnc(-c3cnc4ccccc4c3)o2)cc(OC)c1OC

Compound: Cc1ccc2cc(C)ccc2c1
photoluminescence quantum yield (in C1CCCCC1): 0.59

photoluminescence quantum yield (in CCO): 0.11
photoluminescence quantum yield (in CO): 0.09
photoluminescence quantum yield (in CS(C)=O): 0.23
Compound: CN1/C(=C/C=C(/C=C/C2=[N+](C)c3ccccc3C2(C)C)c2ccc(C(F)(F)F)cc2)C(C)(C)c2ccccc21

photoluminescence quantum yield (in ClCCl): 0.08
Compound: COC(=O)c1ccc(C(=O)NC(C)(C)C)c2c1ccc1c3ccccc3c3ccccc3c12

photoluminescence quantum yield (in ClC(Cl)Cl): 0.2
Compound: F[B-]1(F)n2c(ccc2-c2ccccc2)C(c2ccc(I)cc2)=C2C=CC(c3ccccc3)=[N+]21

photoluminescence quantum yield (in ClCCl): 0.01
Compound: CN(C)c1ccc(/C=C/c2nc(N3CCOCC3)c3c([n+]2[O-])CCCC3)cc1

Compound: CC1(C)c2cc(-n3c4ccccc4c4ccccc43)ccc2N(c2ccc(-c3cc(-c4ccccc4)nc(-c4ccccc4)n3)cc2)c2ccc(-n3c4ccccc4c4ccccc43)cc21
photoluminescence quantum yield (in O=P(c1ccccc1)(c1ccccc1)c1ccccc1Oc1ccccc1P(=O)(c1ccccc1)c1ccccc1): 0.81

photoluminescence quantum yield (in ClCCl): 0.0085
Compound: CC(C)(C)c1cc(-n2c(-c3ccc(C(=C(c4ccccc4)c4ccccc4)c4ccccc4)cc3)cc3c2cc(-c2ccc(C(=C(c4ccccc4)c4ccccc4)c4ccccc4)cc2)n3-c2cc(C(C)(C)C)cc(C(C)(C)C)c2)cc(C(C)(C)C)c1

photoluminescence quantum yield (in ClCCl): 0.1
Compound: CC(C)(C)c1ccc2c(c1)c1ncncc1c1c3ccccc3sc21

Compound: CC1(C)c2ccccc2N(c2ccc3c(c2)-c2cc(N4c5ccccc5C(C)(C)c5ccccc54)ccc2P3(=O)c2ccccc2)c2ccccc21
photoluminescence quantum yield (in Cc1ccccc1): 0.55
photoluminescence quantum yield [1]: 0.56

photoluminescence quantum yield (in C1CCOC1): 0.11
Compound: COc1cc2c(cc1-c1ccc([N+](=O)[O-])cc1)Cc1c3c(c4c(c1-2)-c1cc(OC)c(-c2ccc([N+](=O)[O-])cc2)cc1C4)C(=O)N(CCC(C)C)C3=O

photoluminescence quantum yield (in CC#N): 0.06
photoluminescence quantum yield (in ClCCl): 0.21
Compound: CN(C)c1ccc(/C=C/c2ncc3ccccc3n2)cc1

photoluminescence quantum yield (in ClC(Cl)Cl): 0.84
Compound: CCCCCCN1C(=O)C(c2ccc(-c3ccc(-n4c5ccccc5c5ccccc54)cc3)cc2)=C(c2ccc(-c3ccc(-n4c5ccccc5c5ccccc54)cc3)cc2)C1=O
photoluminescence quantum yield [1]: 0.57

photoluminescence quantum yield (in C1COCCO1): 0.25
photoluminescence quantum yield (in CC#N): 0.03
photoluminescence quantum yield (in CCCCOCCCC): 0.25
photoluminescence quantum yield (in CCOC(C)=O): 0.12
Compound: COc1nc(Cl)nc(Nc2ccc3cc4ccccc4cc3c2)n1

photoluminescence quantum yield (in C1CCOC1): 0.586
Compound: CCCCC1(CCCC)c2cc(C#Cc3ccc(/C=C(\C)c4ccccc4)cc3)ccc2-c2ccc(C#Cc3ccc(/C=C(\C)c4ccccc4)cc3)cc21

photoluminescence quantum yield (in CCO): 0.44
Compound: Cc1cc2cc3cc(C)c(C)cc3cc2cn1

Compound: Cc1ccc(N2C(c3ccccc3N)=NC(c3ccccc3)C2c2ccccc2)cc1 (configuration not stated)
photoluminescence quantum yield (in Cc1ccccc1): 0.009

Compound: CCC1=C(C)C2=Cc3cc(I)cn3[B-](F)(F)[N+]2=C1C
photoluminescence quantum yield (in C1CCCCC1): 0.113
photoluminescence quantum yield (in CC(C)=O): 0.063
photoluminescence quantum yield (in CCO): 0.07
photoluminescence quantum yield (in CCOC(C)=O): 0.078
photoluminescence quantum yield (in CO): 0.069
photoluminescence quantum yield (in OCC(F)(F)F): 0.05

Compound: COCCC1=Cc2nc1ccc1[nH]c(cc1CCOC)c1nc(c(N)cc3[nH]c2cc3CCOC)C(CCOC)=C1
photoluminescence quantum yield (in Cc1ccccc1): 0.04

photoluminescence quantum yield (in CC#N): 0.3
Compound: [NH3+]C1(c2ccc3cc(O)ccc3c2)C2CC3CC(C2)CC1C3 (configuration not stated)

photoluminescence quantum yield (in CC#N): 0.18
Compound: N#C/C(=C\c1ccc(C#N)cc1)c1nc(-c2ccc(Cl)cc2)cs1

Compound: CN(C)c1ccc(/C=C/C=C/c2ccc([N+](=O)[O-])c(O)c2)cc1
photoluminescence quantum yield (in C1CCCCC1): 0.13
photoluminescence quantum yield (in C1COCCO1): 0.03
photoluminescence quantum yield (in CCCCCCC): 0.1
photoluminescence quantum yield (in Cc1ccccc1): 0.11

photoluminescence quantum yield (in ClCCl): 0.78
Compound: c1ccc2c(-c3c4ccccc4c(-c4ccc(-n5c6ccccc6c6ccccc65)cc4)c4ccccc34)cccc2c1

Compound: CCC1=C(C)C2=C(C)c3cccn3[B-](F)(F)[N+]2=C1C
photoluminescence quantum yield (in C1CCCCC1): 0.96
photoluminescence quantum yield (in CC(C)=O): 0.79
photoluminescence quantum yield (in CCO): 0.84
photoluminescence quantum yield (in CCOC(C)=O): 0.84
photoluminescence quantum yield (in CO): 0.76
photoluminescence quantum yield (in OCC(F)(F)F): 0.75

photoluminescence quantum yield (in CS(C)=O): 0.136
Compound: CCOC(=O)C1=C(N)n2c(=O)c3ccccc3c(=O)n2C1c1ccccc1 (configuration not stated)

photoluminescence quantum yield (in CCO): 0.117
Compound: CC1(C)C(/C=C/C2=C(Cl)C(=C/C=C3/N(Cc4ccccc4)c4ccccc4C3(C)C)/CCC2)=[N+](Cc2ccccc2)c2ccccc21

photoluminescence quantum yield (in CC#N): 0.057
Compound: N#C/C(=C\c1ccc(C(F)(F)F)cc1)c1nc(-c2ccc(Cl)cc2)cs1

Compound: CC1(C)c2cc(/C=C/c3nc(/C=C/c4ccc5c(c4)C(C)(C)c4cc(N(c6ccccc6)c6ccccc6)ccc4-5)nc(/C=C/c4ccc5c(c4)C(C)(C)c4cc(N(c6ccccc6)c6ccccc6)ccc4-5)n3)ccc2-c2ccc(N(c3ccccc3)c3ccccc3)cc21
photoluminescence quantum yield (in Cc1ccccc1): 0.36

photoluminescence quantum yield (in CC#N): 0.45
Compound: CCOC(=O)c1c2c3c(ccc(Br)c3c3cc4ccccc4cc13)N(C)C2=O

photoluminescence quantum yield (in ClC(Cl)Cl): 0.37
Compound: CC(=O)OCCN1C(=O)c2cccc3c(Oc4ccc(C#N)cc4)ccc(c23)C1=O

photoluminescence quantum yield (in ClC(Cl)Cl): 0.016
Compound: CC(C)(C)c1ccc2oc3nc4oc5ccc(N6c7ccccc7Sc7ccccc76)cc5c4cc3c2c1

photoluminescence quantum yield (in CCO): 0.28
photoluminescence quantum yield (in ClCCl): 0.85
Compound: Ic1ccc(-c2c3ccc(=[N+]4CCCCC4)cc-3oc3cc(N4CCCCC4)ccc23)cc1

photoluminescence quantum yield (in CC#N): 0.46
photoluminescence quantum yield (in CO): 0.01
photoluminescence quantum yield (in ClCCl): 0.66
Compound: COc1ccc(O)c(-c2[nH]c(=O)n3c2-c2ccccc2C3=O)c1

photoluminescence quantum yield (in CO): 0.007
Compound: Cc1ccc2c(c1)nnn2-c1c(C#N)c2c(N)ncnc2n1[C@H]1C[C@H](O)[C@@H](CO)O1

photoluminescence quantum yield (in ClCCl): 0.59
Compound: CCN(CC)c1ccc2cc(-c3ccc(-c4ccc(-c5cc6ccccc6oc5=O)cc4)cc3)c(=O)oc2c1

photoluminescence quantum yield (in C1COCCO1): 0.3
photoluminescence quantum yield (in CC#N): 0.16
photoluminescence quantum yield (in CCCCCCC): 0.4
photoluminescence quantum yield (in CO): 0.02
Compound: C(/C=C/c1ccc(N(c2ccccc2)c2ccccc2)cc1)=C\c1ccncc1

photoluminescence quantum yield (in C1CCOC1): 0.73
Compound: C[Si](C)(C)c1ccc(-c2ccc(-c3ccc(-c4ccc(-c5ccc([Si](C)(C)C)s5)cc4)c4nsnc34)cc2)s1

Compound: O=C(c1ccncc1)c1ccc(-n2c3ccccc3c3ccccc32)cc1
photoluminescence quantum yield (in Cc1ccccc1): 0.012
photoluminescence quantum yield [2]: 0.38

photoluminescence quantum yield (in C1CCOC1): 0.5
photoluminescence quantum yield (in CN1CCCC1=O): 0.2
photoluminescence quantum yield (in CN(C)C=O): 0.6
Compound: O=C1OC(=O)c2cc(Oc3ccccc3)c3c4ccc5c6c(cc(Oc7ccccc7)c(c7ccc1c2c73)c64)C(=O)OC5=O

photoluminescence quantum yield (in ClC(Cl)Cl): 0.04
Compound: N=c1oc2cccc3c4c(-c5ccccc5)oc5cccc(c(c1-c1ccccc1)c23)c54

Compound: CC(C)CCC[C@@H](C)[C@H]1CC[C@H]2[C@@H]3CC=C4C[C@@H](OC(=O)Oc5cc(/C=C/c6ccc(N(C)C)cc6)ccc5[N+](=O)[O-])CC[C@]4(C)[C@H]3CC[C@]12C
photoluminescence quantum yield (in C1CCCCC1): 0.29
photoluminescence quantum yield (in C1COCCO1): 0.09
photoluminescence quantum yield (in CCCCCCC): 0.29
photoluminescence quantum yield (in Cc1ccccc1): 0.18

Compound: COc1ccc(C2=C3C(C)=CC(C=Cc4ccc(C(=O)OC5C[C@H]6CCC5(C)C6(C)C)cc4)=[N+]3[B-](F)(F)n3c(C)cc(C)c32)cc1 (some centres not stated)
photoluminescence quantum yield (in Cc1ccccc1): 0.41

photoluminescence quantum yield (in CC#N): 0.009
Compound: CN(C)c1ccc(C#Cc2ccc3ccc(=O)oc3c2)cc1

Compound: O=C(c1ccc(C(=O)c2ccc(N3c4ccccc4Oc4ccccc43)cc2)cc1)c1ccc(N2c3ccccc3Oc3ccccc32)cc1
photoluminescence quantum yield (in Cc1ccccc1): 0.1
photoluminescence quantum yield [2]: 0.36

photoluminescence quantum yield (in C1CCCCC1): 0.46
photoluminescence quantum yield (in CC#N): 0.55
photoluminescence quantum yield (in CO): 0.39
photoluminescence quantum yield (in ClCCl): 0.41
Compound: COc1c2ccccc2c(OC)c2c1c1ccccc1n2C

photoluminescence quantum yield (in CCO): 0.86
Compound: CC(C)(C)OC(=O)NC(C(=O)OCc1ccc2c3cccc4cccc(c5cccc1c52)c43)c1c[nH]c2ccccc12 (configuration not stated)

photoluminescence quantum yield (in c1ccccc1): 0.606
Compound: O=c1oc2ccc3ccc(O)cc3c2nc1-c1ccccc1

photoluminescence quantum yield (in ClC(Cl)Cl): 0.84
Compound: c1ccc(-c2c3c(nc4ccccc24)-c2cc4c(cc2CC3)-c2nc3ccccc3c(-c3ccccc3)c2CC4)cc1

Reference: the Deep4Chem optical property database
